The values that follow come from patent publication US8956646B2, “Zwitterionic lipids” (The Regents of the University of California, priority 2010, dated 2015).

Holding throughout (assay type): physicochemical
Series [1] in a line: Zeta/surface potential of SBL liposomes in salt solutions. To be noted: order of anions; data not shown. The text has this:
The vesicles formed in these three salts were all reasonably small, with those formed in KBr having, on average, a slighter larger diameter. This may be due the weaker binding of Br^− to the cationic region of the SBLs relative to I^− and ClO4^−, which would result in a higher percentage of SBLs in the inner-salt conformation.

Series [2] can be described thus: Phase transition temperatures of sulfobetaine lipids (DSC). The method, then: All buffers contain 10 mM HEPES, pH 7.4. Preparations were made at 26 mM SB lipid by thin film rehydration at 80° C., followed by brief 20 second bursts of sonication at 80° C. (˜2-4 times) to make dispersions of large bilayer fragments.
Based on our observations that SBL liposome formation and stability is largely dependent on salt composition and concentration we sought to determine if these effects changed the transition temperatures of the liposomes. The data in FIG. 3 clearly depicts a bi-modal phase transition behavior for the SBLs. Without salt, the majority of the SBLs are likely in one of the inner salt forms supported by the observed elevated transition temperatures.
Inner and outer salt conformations of the SBLs are hypothesized to coordinate to the observed high and low phase transitions, respectively.

Series [3] in a line: SBL liposome formation, diameter and PDI in various salts. Set-up: key to Liposome diameter (nm): DNF=Did Not Form, no liposomes formed. The method, then:
The five SBLs were first examined for their ability to make vesicles under standard buffer conditions (10 mM HEPES, 140 mM NaCl, pH 7.4). We observed that none of the five SBLs were able to form stable liposomes after thin film rehydration in this buffer followed by sonication at 80° C. […] To test if the SB headgroup inner salt interactions could be disrupted by an increase in salt concentration, the same liposome formation process was performed at increasing NaCl concentrations. Salts with different anions were also tested to determine if those predicted to have greater binding than Cl^− would allow for liposome formation at concentrations where NaCl was not able to. Liposome-formation results are shown in Table 4 for all five SBLs with a variety of salts and at various NaCl concentrations.
Liposome preparations were made at 26 mM lipid in 10 mM HEPES buffer, pH 7.4 with the specified salt concentration. All preparations were rehydrated and sonicated at 80° C. for 7 minutes, allowed to cool for 5 minutes and then measured.
Liposome diameters were measured both five minutes after sonication and at 24 hours. DPSB and DSSB in NaI both formed gels and could not be measured and DPSB and DSSB with KBr precipitated into particles too large and polydisperse for measurement.

Series [4] is described as follows: ZNLP hydrodynamic diameter, zeta potential and encapsulation efficiency. To be noted: ZNLP encapsulating siRNA. The method, then:
5-10 min after particle formation liposomes are extruded through either 50 nm or 80 nm polycarbonate membranes 7 times. Methanol can be removed by either evaporation or dialysis.
FIG. 29 is a table showing ZNLP encapsulating siRNA: hydrodynamic diameter and zeta potential: siRNA was encapsulated into ZNLP from various zwitterionic lipids.
FIG. 30 is a table showing the effect of helper lipids on size and encapsulation efficiency: Changing helper lipid and lipid composition affects size and encapsulation efficiency of ZNLP. DOBA-Q formed small lipid vesicles≦80 nm. […] All lipid formulations display negative/neutral zeta potential.

Series [5] can be described thus: Zeta potential of BLL containing vesicles as a function of pH. The conditions noted are these: changing ratio of DOBAQ:DOPC. As for the experimental part: Liposomes containing quaternary BLL remain neutral at pH>pI, while liposomes containing tertiary BLL move from neutral to anionic as pH increases above the pI due to deprotonation of the amine.
All other lipids show pH responsive behavior, with 4° BLL generally transitioning from cationic to neutral, and 3° from cationic to neutral to anionic.
Further analysis is required to fully understand this behavior.

The mark [6] stands for this setting: 150 mM KBr, five minutes after sonication.
The mark [7] stands for this setting: 150 mM NaClO4, five minutes after sonication.
Where [8] appears, read: 150 mM NaI, five minutes after sonication.
[9] abbreviates: 500 mM NaCl, 26 mM lipid, 10 mM HEPES pH 7.4.
Setting [10] is: 1000 mM NaCl, 26 mM lipid, 10 mM HEPES pH 7.4.

In the case of `CCCCCCCCCCCCCC(=O)OCC(C[N+](C)(C)CCCS(=O)(=O)[O-])OC(=O)CCCCCCCCCCCCC` (stereo not shown) [DMSB], the “zeta-potential (surface potential) in various salt solutions” value in series [1] was “most negative for ClO4^−>I^−>Br^−>Cl^−”. In addition, the values for the phase transitions observed entry in series [2] (150 mM NaClO4) and in series [2] (150 mM NaF) were “only the high transition” and “only the low transition”, respectively. The “inner/outer salt form (high/low transition) as function of NaCl concentration” value in series [2] (DSC, 10 mM HEPES pH 7.4, NaCl up to 1M) is reported as “existing as the outer salt with a high transition temperature for all NaCl concentrations up to 1M”. The “Transition Temperatures (° C.), SB Inner Salt” value in series [2] (hypothesized inner salt form, observed high phase transition) worked out at 48 °C. The “Transition Temperatures (° C.), SB Outer Salt” value in series [2] (hypothesized outer salt form, observed low phase transition) was 25-30 °C. In addition, the “Liposome diameter (nm)” value in series [3] (0 mM NaCl, 26 mM lipid, 10 mM HEPES pH 7.4) was “DNF”; in series [3] (150 mM KBr (24 h)) it was 31.67 nm; in series [3] (setting [6]) it was 28.53 nm; in series [3] (150 mM NaCl, 26 mM lipid, 10 mM HEPES pH 7.4), “DNF”; in series [3] (150 mM NaClO4 (24 h)) it was 43.68 nm; in series [3] (setting [7]) it was 41.76 nm. Besides, the “Liposome diameter (nm)” value in series [3] (150 mM NaF) was “DNF”; in series [3] (150 mM NaI (24 h)), 38.69 nm; in series [3] (setting [8]), 35.3 nm; in series [3] (setting [9]), 63.92 nm; in series [3] (setting [10]), 76.8 nm. The PDI in series [3] (150 mM KBr (24 h)) stood at 0.181; in series [3] (setting [6]), 0.160; in series [3] (150 mM NaClO4 (24 h)), 0.24; in series [3] (setting [7]), 0.239; in series [3] (150 mM NaI (24 h)), 0.250; in series [3] (setting [8]), 0.232. In addition, the PDI in series [3] (setting [9]) is 0.385; in series [3] (setting [10]), 0.233. Besides, in series [3] (500 mM NaF), the liposome formation entry is given as “unable to form liposomes”.
For the molecule `CCCCCCCC/C=C\CCCCCCCC(=O)OCC(C[N+](C)(C)Cc1ccc(C(=O)[O-])cc1)OC(=O)CCCCCCC/C=C\CCCCCCCC` (stereo not shown) [DOBAQ], in series [4], the “ZNLP size (hydrodynamic diameter)” value is on record as ≤ 80 nm. For the same molecule, the “Zeta potential as function of pH, effect of BLL:DOPC ratio” value in series [5] is “general relationship between pH and zeta potential is maintained at all ratios tested”.
